The text below walks through data of patent US8513220B2, “Aromatic compounds having sphingosine-1-phosphonate (S1P) receptor activity” (Allergan, Inc., priority 2010, dated 2013).

As a reminder, the EC50 is the concentration at which the effect is half-maximal.

One assay has as its system lymphocytes in blood. The experiment in a line: Lymphopenia assay in mice (in vivo blood lymphocyte depletion). The following applies: female C57BL6 mice, 10 mg/Kg subcutaneous, after 5 h of drug application. The protocol: Test drugs are prepared in a solution containing 3% (w/v) 2-hydroxy propyl β-cyclodextrin (HPBCD) and 1% DMSO to a final concentration of 1 mg/ml, and subcutaneously injected to female C57BL6 mice (CHARLES RIVERS) weighing 20-25 g at the dose of 10 mg/Kg. Blood samples are obtained by puncturing the submandibular skin with a Goldenrod animal lancet at 5, 24, 48, 72, and 96 hrs post drug application. Blood is collected into microvettes (SARSTEDT) containing EDTA tripotassium salt. Lymphocytes in blood samples are counted using a HEMAVET Multispecies Hematology System, HEMAVET HV950FS (Drew Scientific Inc.). (Hale, J. et al Bioorg. & Med. Chem. Lett. 14 (2004) 3351).
A lymphopenia assay in mice; as previously described, was employed to measure the in vivo blood lymphocyte depletion after dosing with: • (3-{[5-(4-Hexyl-phenyl)-6-thiophen-2-yl-pyridin-2-ylmethyl]-amino}-propyl)-phosphonic acid, Compound 2 (FIG. 1); • (3-{[6-(5-Fluoro-thiophen-2-yl)-5-(4-hexyl-phenyl)-pyridin-2-ylmethyl]-amino}-propyl)-phosphonic acid, Compound 3 (FIG. 2); • (3-{[5-(4-Hexyl-3-propyl-phenyl)-6-thiophen-2-yl-pyridin-2-ylmethyl]-amino}-propyl)-phosphonic acid, Compound 4 (FIG. 3); • [3-({5-[4-(3-Phenyl-propyl)-phenyl]-6-thiophen-2-yl-pyridin-2-ylmethyl}-amino)-propyl]-phosphonic acid, Compound 5 (FIG. 4); • (3-{[5-(4-Hexyl-phenyl)-6-thiophen-3-yl-pyridin-2-ylmethyl]-amino}-propyl)-phosphonic acid, Compound 6 (FIG. 5); • (3-{[5-(4-Hexyl-phenyl)-6-oxazol-4-yl-pyridin-2-ylmethyl]-amino}-propyl)-phosphonic acid, Compound 7 (FIG. 6); • (3-{[6-Furan-2-yl-5-(4-hexyl-phenyl)-pyridin-2-ylmethyl]-amino}-propyl)-phosphonic acid, Compound 9 (FIG. 7); • [3-({6-Phenyl-5-[4-(3-phenyl-propyl)-phenyl]-pyridin-2-ylmethyl}-amino)-propyl]-phosphonic acid, Compound 14 (FIGS. 8) and • (3-{[5-(4-Hexyl-3-propyl-phenyl)-6-phenyl-pyridin-2-ylmethyl]-amino}-propyl)-phosphonic acid, Compound 16 (FIG. 9).
These S1P agonist (or modulator) is useful for S1P-related diseases, and exemplified by the lymphopenia in vivo response. In general, test drugs Compound 3 and 16 were prepared in a solution containing 3% (w/v) 2-hydroxy propyl β-cyclodextrin (HPBCD) and 1% DMSO to a final concentration of 1 mg/ml, and subcutaneously injected to female C57BL6 mice (CHARLES RIVERS) weighing 20-25 g at the dose of 10 mg/Kg. Blood samples were obtained by puncturing the submandibular skin with a Goldenrod animal lancet at 5, 24, 48, and 72 hrs post drug application. Blood was collected into microvettes (SARSTEDT) containing EDTA tripotassium salt. Lymphocytes in blood samples were counted using a HEMAVET Multispecies Hematology System, HEMAVET HV950FS (Drew Scientific Inc.). Results are shown in the following figures below that depict lowered lymphocyte count after 5 hours (<1 number of lymphocytes 10^3/μL blood).

Another assay concerns the target T1, human S1P1 receptor (Homo sapiens, UniProt P21453).
T1 construct: expressed in transfected cells; membranes used
The experiment in a line: GTP γ35S binding assay for S1P1 activity. Format: biochemical. The protocol:
Novel compounds were synthesized and tested for S1P1 activity using the GTP γ^35S binding assay. These compounds may be assessed for their ability to activate or block activation of the human S1P1 receptor in cells stably expressing the S1P1 receptor. GTP γ^35S binding was measured in the medium containing (mM) HEPES 25, pH 7.4, MgCl2 10, NaCl 100, dithitothreitol 0.5, digitonin 0.003%, 0.2 nM GTP γ^35S, and 5 μg membrane protein in a volume of 150 μl. Test compounds were included in the concentration range from 0.08 to 5,000 nM unless indicated otherwise. Membranes were incubated with 100 μM 5′-adenylylimmidodiphosphate for 30 min, and subsequently with 10 μM GDP for 10 min on ice. Drug solutions and membrane were mixed, and then reactions were initiated by adding GTP γ^35S and continued for 30 min at 25° C. Reaction mixtures were filtered over Whatman GF/B filters under vacuum, and washed three times with 3 mL of ice-cold buffer (HEPES 25, pH7.4, MgCl2 10 and NaCl 100). Filters were dried and mixed with scintillant, and counted for ^35S activity using a […]. Agonist-induced GTP γ^35S binding was obtained by subtracting that in the absence of agonist. Binding data were analyzed using a non-linear regression method. In case of antagonist assay, the reaction mixture contained 10 nM S1P in the presence of test antagonist at concentrations ranging from 0.08 to 5000 nM.
Activity potency: S1P1 receptor from GTP γ^35S: nM, (EC50)
In general terms: GTPγS resists hydrolysis and so accumulates on activated G proteins.

T1 sequence (P21453 whole entry): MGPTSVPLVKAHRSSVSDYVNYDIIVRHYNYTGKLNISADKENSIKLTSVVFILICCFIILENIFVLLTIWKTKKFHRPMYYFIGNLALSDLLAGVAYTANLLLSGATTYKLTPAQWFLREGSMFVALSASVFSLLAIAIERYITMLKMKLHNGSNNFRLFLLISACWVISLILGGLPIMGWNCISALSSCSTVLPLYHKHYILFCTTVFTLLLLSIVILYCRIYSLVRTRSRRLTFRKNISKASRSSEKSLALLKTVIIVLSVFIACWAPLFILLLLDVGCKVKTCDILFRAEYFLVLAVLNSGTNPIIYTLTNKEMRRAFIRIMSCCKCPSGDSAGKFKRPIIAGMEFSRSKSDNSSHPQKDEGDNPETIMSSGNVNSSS

Take `CCCCCCc1ccc(-c2ccc(CNCCCP(=O)(O)O)nc2-c2ccccc2)cc1CCC` [Compound 16, (3-{[5-(4-Hexyl-3-propyl-phenyl)-6-phenyl-pyridin-2-ylmethyl]-amino}-propyl)-phosphonic acid]: the “number of lymphocytes found in the blood” value in the assay on lymphocytes in blood was “reduced”. In addition, the activation at 5 µM on human S1P1 receptor (S1P1 receptor GTPγ^35S, 5 μM, read-out: % STIMULATION @ 5 μM) stood at 73.1%. Moreover, the EC50 on human S1P1 receptor (S1P1 receptor, membranes, compounds 0.08 to 5,000 nM, read-out: GTPγ^35S EC50) amounted to 29.6 nM.
